According to patent US9981959B2, “Thiazolyl and oxazolyl urea, thiourea, guanidine and cyanoguanidine compounds as TrkA kinase inhibitors” (Array BioPharma Inc., priority 2012, dated 2018):

Assays:
Assay in all cases: KinaseProfiler off-target kinase profiling
Assay type in all cases: biochemical
Settings in all cases: 10 μM, ATP near Km
GSK3alpha = target: T1, GSK3alpha (Homo sapiens, UniProt P49840)
T1 construct: purchased Millipore, Inc. (KinaseProfiler service)
Method in brief: (§1)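 Tested at 10 μM in duplicate; ATP near Km per kinase. Readout: percent of control, mean of 2 replicates.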

EphA2 = target: T2, EphA2 (Homo sapiens, UniProt P29317)
T2 construct: purchased Millipore, Inc. (KinaseProfiler service)
Method in brief: as §1

MSK1 = target: T3, MSK1 (Homo sapiens, UniProt O75582)
T3 construct: purchased Millipore, Inc. (KinaseProfiler service)
Method in brief: as §1

PAK5 = target: T4, PAK5 (Homo sapiens, UniProt Q9P286)
T4 construct: purchased Millipore, Inc. (KinaseProfiler service)
Method in brief: as §1

MLK1 = target: T5, MLK1 (Homo sapiens, UniProt P80192)
T5 construct: purchased Millipore, Inc. (KinaseProfiler service)
Method in brief: as §1

MKNK2 = target: T6, MKNK2 (Homo sapiens, UniProt Q9HBH9)
T6 construct: purchased Millipore, Inc. (KinaseProfiler service)
Method in brief: as §1

KDR = target: T7, KDR (Homo sapiens, UniProt P35968)
T7 construct: purchased Millipore, Inc. (KinaseProfiler service)
Method in brief: as §1

Abl-P = target: T8, Abl-P (Homo sapiens, UniProt P00519)
T8 construct: purchased Millipore (KinaseProfiler service)
Method in brief: as §1

ERK2 = target: T9, ERK2 (Homo sapiens, UniProt P28482)
T9 construct: purchased Millipore, Inc. (KinaseProfiler service)
Method in brief: as §1

IR = target: T10, IR (Homo sapiens, UniProt P06213)
T10 construct: purchased Millipore, Inc. (KinaseProfiler service)
Method in brief: as §1

MAP4K2 = target: T11, MAP4K2 (Homo sapiens, UniProt Q12851)
T11 construct: purchased Millipore, Inc. (KinaseProfiler service)
T11 sequence (Q12851 whole entry): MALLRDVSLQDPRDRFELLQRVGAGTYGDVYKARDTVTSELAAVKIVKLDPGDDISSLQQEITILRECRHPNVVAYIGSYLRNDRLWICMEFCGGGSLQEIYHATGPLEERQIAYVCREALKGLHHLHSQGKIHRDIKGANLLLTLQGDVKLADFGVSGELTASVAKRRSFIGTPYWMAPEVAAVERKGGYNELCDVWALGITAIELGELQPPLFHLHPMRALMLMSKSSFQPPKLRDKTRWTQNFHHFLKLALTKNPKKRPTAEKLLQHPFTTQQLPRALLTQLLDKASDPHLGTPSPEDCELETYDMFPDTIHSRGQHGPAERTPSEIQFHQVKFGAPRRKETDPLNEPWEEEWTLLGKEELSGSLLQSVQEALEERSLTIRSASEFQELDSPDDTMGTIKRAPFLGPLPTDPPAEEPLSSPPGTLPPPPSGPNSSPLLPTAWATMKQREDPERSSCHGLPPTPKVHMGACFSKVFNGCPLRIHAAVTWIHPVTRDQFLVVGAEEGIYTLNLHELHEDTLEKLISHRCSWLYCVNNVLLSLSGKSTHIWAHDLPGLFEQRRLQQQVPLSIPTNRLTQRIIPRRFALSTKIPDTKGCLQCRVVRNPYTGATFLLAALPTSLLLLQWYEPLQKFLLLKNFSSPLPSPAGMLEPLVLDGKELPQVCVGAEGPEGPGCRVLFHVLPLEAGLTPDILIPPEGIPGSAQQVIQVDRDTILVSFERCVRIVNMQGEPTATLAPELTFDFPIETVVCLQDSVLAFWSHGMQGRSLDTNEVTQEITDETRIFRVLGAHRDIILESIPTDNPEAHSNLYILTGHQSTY
Method in brief: as §1

NEK3 = target: T12, NEK3 (Homo sapiens, UniProt P51956)
T12 construct: purchased Millipore, Inc. (KinaseProfiler service)
Method in brief: as §1

PAK2 = target: T13, PAK2 (Homo sapiens, UniProt Q13177)
T13 construct: purchased Millipore, Inc. (KinaseProfiler service)
Method in brief: as §1

eEF-2K = target: T14, eEF-2K (Homo sapiens, UniProt O00418)
T14 construct: purchased Millipore, Inc. (KinaseProfiler service)
Method in brief: as §1

MAPKAP-K2 = target: T15, MAPKAP-K2 (Homo sapiens, UniProt P49137)
T15 construct: purchased Millipore, Inc. (KinaseProfiler service)
Method in brief: as §1

KIT = target: T16, KIT (Homo sapiens, UniProt P10721)
T16 construct: purchased Millipore, Inc. (KinaseProfiler service)
Method in brief: as §1

CHK1 = target: T17, CHK1 (Homo sapiens, UniProt O14757)
T17 construct: purchased Millipore, Inc. (KinaseProfiler service)
T17 sequence (O14757 whole entry): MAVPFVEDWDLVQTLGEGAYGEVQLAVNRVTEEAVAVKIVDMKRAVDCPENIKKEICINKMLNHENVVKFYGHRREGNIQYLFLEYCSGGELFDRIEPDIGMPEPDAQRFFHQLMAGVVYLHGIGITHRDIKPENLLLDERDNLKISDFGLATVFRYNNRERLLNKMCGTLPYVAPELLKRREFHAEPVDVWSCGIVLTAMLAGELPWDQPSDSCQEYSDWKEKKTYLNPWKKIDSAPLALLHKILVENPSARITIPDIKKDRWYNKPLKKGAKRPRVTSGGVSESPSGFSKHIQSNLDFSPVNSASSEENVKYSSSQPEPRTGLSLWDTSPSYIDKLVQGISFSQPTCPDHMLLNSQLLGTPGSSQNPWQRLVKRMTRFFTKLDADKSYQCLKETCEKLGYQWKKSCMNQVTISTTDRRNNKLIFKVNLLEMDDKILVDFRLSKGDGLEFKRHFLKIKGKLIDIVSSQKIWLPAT
Method in brief: as §1

SGK1 = target: T18, SGK1 (Homo sapiens, UniProt O00141, S422D)
T18 construct: purchased Millipore, Inc. (KinaseProfiler service)
Method in brief: as §1

TAO2 = target: T19, TAO2 (Homo sapiens, UniProt Q9UL54)
T19 construct: purchased Millipore, Inc. (KinaseProfiler service)
Method in brief: as §1

p70S6K = target: T20, p70S6K (Homo sapiens, UniProt P23443)
T20 construct: purchased Millipore, Inc. (KinaseProfiler service)
Method in brief: as §1

DMPK = target: T21, DMPK (Homo sapiens, UniProt Q09013)
T21 construct: purchased Millipore, Inc. (KinaseProfiler service)
Method in brief: as §1

Mer = target: T22, Mer (Homo sapiens, UniProt Q12866)
T22 construct: purchased Millipore, Inc. (KinaseProfiler service)
Method in brief: as §1

AMPK(A1/B1/G1) = target: T23, AMPK(A1/B1/G1) (Homo sapiens, UniProt Q13131)
T23 construct: purchased Millipore (KinaseProfiler service)
Method in brief: as §1

CAMK2g = target: T24, CAMK2g (Homo sapiens, UniProt Q13555)
T24 construct: purchased Millipore (KinaseProfiler service)
T24 sequence (Q13555 whole entry): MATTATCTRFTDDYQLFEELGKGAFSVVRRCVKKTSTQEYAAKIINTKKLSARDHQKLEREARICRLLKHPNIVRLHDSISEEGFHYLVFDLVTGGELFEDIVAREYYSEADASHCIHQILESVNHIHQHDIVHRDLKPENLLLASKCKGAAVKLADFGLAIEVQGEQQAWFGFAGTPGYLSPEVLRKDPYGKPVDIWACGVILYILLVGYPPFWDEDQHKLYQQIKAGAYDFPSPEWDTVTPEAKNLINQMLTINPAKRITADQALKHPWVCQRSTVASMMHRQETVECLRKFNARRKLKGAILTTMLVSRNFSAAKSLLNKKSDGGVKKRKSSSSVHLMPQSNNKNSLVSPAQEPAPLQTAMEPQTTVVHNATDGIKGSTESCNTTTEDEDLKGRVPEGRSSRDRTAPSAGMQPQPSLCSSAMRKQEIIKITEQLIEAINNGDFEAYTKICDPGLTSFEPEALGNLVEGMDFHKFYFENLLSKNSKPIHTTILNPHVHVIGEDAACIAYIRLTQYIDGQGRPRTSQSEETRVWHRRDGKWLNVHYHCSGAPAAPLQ
Method in brief: as §1

GRK6 = target: T25, GRK6 (Homo sapiens, UniProt P43250)
T25 construct: purchased Millipore, Inc. (KinaseProfiler service)
Method in brief: as §1

SIK = target: T26, SIK (Homo sapiens, UniProt P57059)
T26 construct: purchased Millipore, Inc. (KinaseProfiler service)
Method in brief: as §1

Bmx = target: T27, Bmx (Homo sapiens, UniProt P51813)
T27 construct: purchased Millipore (KinaseProfiler service)
Method in brief: as §1

NEK11 = target: T28, NEK11 (Homo sapiens, UniProt Q8NG66)
T28 construct: purchased Millipore, Inc. (KinaseProfiler service)
Method in brief: as §1

SGK3 = target: T29, SGK3 (Homo sapiens, UniProt Q96BR1)
T29 construct: purchased Millipore, Inc. (KinaseProfiler service)
T29 sequence (Q96BR1 whole entry): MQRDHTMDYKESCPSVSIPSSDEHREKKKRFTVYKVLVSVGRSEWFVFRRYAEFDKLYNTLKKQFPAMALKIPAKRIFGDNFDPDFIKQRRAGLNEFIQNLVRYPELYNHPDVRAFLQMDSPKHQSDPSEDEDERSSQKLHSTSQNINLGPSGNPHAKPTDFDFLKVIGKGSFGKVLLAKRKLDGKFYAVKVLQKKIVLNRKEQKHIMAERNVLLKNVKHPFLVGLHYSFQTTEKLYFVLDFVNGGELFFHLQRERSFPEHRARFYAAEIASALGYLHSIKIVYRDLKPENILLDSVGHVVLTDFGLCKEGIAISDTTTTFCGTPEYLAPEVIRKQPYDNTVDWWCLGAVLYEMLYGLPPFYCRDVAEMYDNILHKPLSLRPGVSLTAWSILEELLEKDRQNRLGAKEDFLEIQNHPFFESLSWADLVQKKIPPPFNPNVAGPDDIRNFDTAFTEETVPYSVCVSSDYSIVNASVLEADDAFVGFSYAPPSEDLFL
Method in brief: as §1

WNK3 = target: T30, WNK3 (Homo sapiens, UniProt Q9BYP7)
T30 construct: purchased Millipore, Inc. (KinaseProfiler service)
T30 sequence (Q9BYP7 whole entry): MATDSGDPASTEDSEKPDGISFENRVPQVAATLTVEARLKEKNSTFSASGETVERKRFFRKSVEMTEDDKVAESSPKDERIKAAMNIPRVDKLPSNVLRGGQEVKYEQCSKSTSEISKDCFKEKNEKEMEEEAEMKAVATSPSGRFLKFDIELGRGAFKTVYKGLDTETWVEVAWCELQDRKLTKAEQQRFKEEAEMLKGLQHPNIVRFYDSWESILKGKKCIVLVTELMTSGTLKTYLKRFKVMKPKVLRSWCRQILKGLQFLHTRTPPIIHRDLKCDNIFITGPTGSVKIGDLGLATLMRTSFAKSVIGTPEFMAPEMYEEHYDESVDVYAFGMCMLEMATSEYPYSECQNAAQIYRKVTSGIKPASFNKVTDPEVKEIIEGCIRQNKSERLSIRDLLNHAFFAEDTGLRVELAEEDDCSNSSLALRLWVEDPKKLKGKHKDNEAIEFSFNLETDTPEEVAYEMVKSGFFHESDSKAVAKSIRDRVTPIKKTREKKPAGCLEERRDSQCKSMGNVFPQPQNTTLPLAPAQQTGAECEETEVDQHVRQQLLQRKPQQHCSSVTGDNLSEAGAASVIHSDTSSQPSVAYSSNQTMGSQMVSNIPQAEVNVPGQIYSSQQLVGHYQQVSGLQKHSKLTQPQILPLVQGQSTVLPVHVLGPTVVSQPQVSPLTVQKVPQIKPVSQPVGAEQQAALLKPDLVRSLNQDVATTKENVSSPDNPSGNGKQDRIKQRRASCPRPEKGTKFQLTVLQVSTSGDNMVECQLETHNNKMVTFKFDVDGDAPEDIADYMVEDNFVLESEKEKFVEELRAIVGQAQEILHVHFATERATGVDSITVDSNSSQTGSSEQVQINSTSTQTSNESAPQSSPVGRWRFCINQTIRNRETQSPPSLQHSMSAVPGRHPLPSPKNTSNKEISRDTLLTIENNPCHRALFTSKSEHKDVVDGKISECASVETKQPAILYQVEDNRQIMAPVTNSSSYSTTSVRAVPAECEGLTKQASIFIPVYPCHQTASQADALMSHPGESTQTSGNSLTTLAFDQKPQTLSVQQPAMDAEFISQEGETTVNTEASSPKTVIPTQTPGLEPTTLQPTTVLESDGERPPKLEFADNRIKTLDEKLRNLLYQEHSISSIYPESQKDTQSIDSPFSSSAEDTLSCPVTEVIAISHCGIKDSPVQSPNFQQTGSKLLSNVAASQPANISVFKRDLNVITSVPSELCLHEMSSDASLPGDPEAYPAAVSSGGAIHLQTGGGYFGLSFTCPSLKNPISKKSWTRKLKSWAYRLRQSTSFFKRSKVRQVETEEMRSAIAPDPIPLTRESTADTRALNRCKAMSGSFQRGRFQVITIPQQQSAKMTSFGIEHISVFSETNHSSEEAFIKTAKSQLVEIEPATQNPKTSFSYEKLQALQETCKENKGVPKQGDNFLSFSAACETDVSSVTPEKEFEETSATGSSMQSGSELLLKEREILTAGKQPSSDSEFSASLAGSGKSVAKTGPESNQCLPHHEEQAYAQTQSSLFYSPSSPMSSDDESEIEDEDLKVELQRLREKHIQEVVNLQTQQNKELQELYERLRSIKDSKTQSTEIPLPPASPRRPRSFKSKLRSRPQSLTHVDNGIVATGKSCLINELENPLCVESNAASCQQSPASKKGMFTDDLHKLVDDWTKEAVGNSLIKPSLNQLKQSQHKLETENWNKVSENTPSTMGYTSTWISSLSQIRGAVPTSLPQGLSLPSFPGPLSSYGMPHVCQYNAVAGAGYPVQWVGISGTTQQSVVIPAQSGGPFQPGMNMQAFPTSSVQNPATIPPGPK
Method in brief: as §1

AURKA = target: T31, AURKA (Homo sapiens, UniProt O14965)
T31 construct: purchased Millipore (KinaseProfiler service)
T31 sequence (O14965 whole entry): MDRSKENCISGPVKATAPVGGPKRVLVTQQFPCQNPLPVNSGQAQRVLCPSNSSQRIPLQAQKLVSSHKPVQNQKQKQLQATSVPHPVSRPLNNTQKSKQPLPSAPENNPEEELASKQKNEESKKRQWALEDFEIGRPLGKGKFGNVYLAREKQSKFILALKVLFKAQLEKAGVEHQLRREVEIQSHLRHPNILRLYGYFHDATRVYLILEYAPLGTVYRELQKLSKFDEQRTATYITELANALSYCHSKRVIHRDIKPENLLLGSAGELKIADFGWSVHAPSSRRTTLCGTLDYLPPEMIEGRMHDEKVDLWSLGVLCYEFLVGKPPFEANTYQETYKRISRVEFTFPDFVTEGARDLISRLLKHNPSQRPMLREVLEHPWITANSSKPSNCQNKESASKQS
Method in brief: as §1

CLK3 = target: T32, CLK3 (Homo sapiens, UniProt P49761)
T32 construct: purchased Millipore, Inc. (KinaseProfiler service)
Method in brief: as §1

FGFR3 = target: T33, FGFR3 (Homo sapiens, UniProt P22607)
T33 construct: purchased Millipore, Inc. (KinaseProfiler service)
Method in brief: as §1

CAMK1 = target: T34, CAMK1 (Homo sapiens, UniProt Q14012)
T34 construct: purchased Millipore (KinaseProfiler service)
T34 sequence (Q14012 whole entry): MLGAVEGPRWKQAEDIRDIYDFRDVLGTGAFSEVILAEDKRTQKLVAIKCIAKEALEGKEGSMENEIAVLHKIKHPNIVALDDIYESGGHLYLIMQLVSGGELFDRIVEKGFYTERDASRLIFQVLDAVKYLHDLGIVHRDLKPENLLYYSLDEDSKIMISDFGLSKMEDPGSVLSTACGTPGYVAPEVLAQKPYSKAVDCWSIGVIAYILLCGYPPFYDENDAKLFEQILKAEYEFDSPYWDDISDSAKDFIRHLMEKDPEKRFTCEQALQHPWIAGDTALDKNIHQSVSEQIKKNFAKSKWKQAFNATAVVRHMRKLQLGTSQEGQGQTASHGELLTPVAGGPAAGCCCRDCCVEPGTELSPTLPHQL
Method in brief: as §1

MELK = target: T35, MELK (Homo sapiens, UniProt Q14680)
T35 construct: purchased Millipore, Inc. (KinaseProfiler service)
Method in brief: as §1

TSSK1 = target: T36, TSSK1 (Homo sapiens, UniProt Q9BXA7)
T36 construct: purchased Millipore, Inc. (KinaseProfiler service)
Method in brief: as §1

PKCtheta = target: T37, PKCtheta (Homo sapiens, UniProt Q04759)
T37 construct: purchased Millipore, Inc. (KinaseProfiler service)
Method in brief: as §1

Cc1c(-c2cnn(C)c2)nn(-c2ccccc2)c1NC(=O)Nc1sc(C(F)(F)F)nc1-c1ccccc1 [Example 2, 1-(1′,4-dimethyl-1-phenyl-1H,1′H-[3,4′-bipyrazol]-5-yl)-3-(4-phenyl-2-(trifluoromethyl)thiazol-5-yl)urea]
Avg POC (GSK3alpha): 147.5 POC | Avg POC (EphA2): 127 POC | Avg POC (MSK1): 151 POC | Avg POC (PAK5): 131.5 POC | Avg POC (MLK1): 95.5 POC | Avg POC (MKNK2): 95 POC | Avg POC (KDR): 126 POC | Avg POC (Abl-P): 148 POC | Avg POC (ERK2): 135 POC | Avg POC (IR): 99 POC | Avg POC (MAP4K2): 121.5 POC | Avg POC (NEK3): 108.5 POC | Avg POC (PAK2): 98.5 POC | Avg POC (eEF-2K): 151.5 POC | Avg POC (MAPKAP-K2): 143.5 POC | Avg POC (KIT): 102.5 POC | Avg POC (CHK1): 126.5 POC | Avg POC (SGK1): 139.5 POC | Avg POC (TAO2): 123.5 POC | Avg POC (p70S6K): 322 POC | Avg POC (DMPK): 107.5 POC | Avg POC (Mer): 105.5 POC | Avg POC (AMPK(A1/B1/G1)): 134.5 POC | Avg POC (CAMK2g): 103 POC | Avg POC (GRK6): 98.5 POC | Avg POC (SIK): 145 POC | Avg POC (Bmx): 129.5 POC | Avg POC (NEK11): 73.5 POC | Avg POC (SGK3): 151 POC | Avg POC (WNK3): 112.5 POC | Avg POC (AURKA): 116 POC | Avg POC (CLK3): 110.5 POC | Avg POC (FGFR3): 117 POC | Avg POC (CAMK1): 95.5 POC | Avg POC (MELK): 99 POC | Avg POC (TSSK1): 92 POC | Avg POC (PKCtheta): 130 POC
